Assay results: ChEMBL document CHEMBL1201862, “PubChem BioAssay data set” (2004)
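Test compounds were applied to cells in 96-well plates for 48 hours at 5 doses. Abbreviation: GI50, concentration required for 50% inhibition of growth.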 The source made the active and inactive calls. Rule as the data show it: active = GI50 up to about 1.1 µM and inactive = higher.

Legend:
Experiment in all cases: NCI-60 cell line screen, 48 h
UO-31 = tested on: UO-31
SF-295 = tested on: SF-295
SW-620 = tested on: SW-620
786-0 = tested on: 786-0
SNB-19 = tested on: SNB-19
NCI-H226 = tested on: NCI-H226
Hs-578T = tested on: Hs-578T
NCI-H23 = tested on: NCI-H23
HOP-62 = tested on: HOP-62
HCT-15 = tested on: HCT-15
U-251 = tested on: U-251
TK-10 = tested on: TK-10
COLO 205 = tested on: COLO 205
A498 = tested on: A498
EKVX = tested on: EKVX
LOX IMVI = tested on: LOX IMVI
A549 = tested on: A549
CCRF-CEM = tested on: CCRF-CEM
OVCAR-8 = tested on: OVCAR-8
RPMI-8226 = tested on: RPMI-8226
OVCAR-5 = tested on: OVCAR-5
NCI-H460 = tested on: NCI-H460
OVCAR-4 = tested on: OVCAR-4
MDA-MB-231 = tested on: MDA-MB-231
HT-29 = tested on: HT-29
IGROV-1 = tested on: IGROV-1
HL-60 = tested on: HL-60
MOLT-4 = tested on: MOLT-4
SN12C = tested on: SN12C
HCT-116 = tested on: HCT-116
SF-539 = tested on: SF-539
MDA-MB-435 = tested on: MDA-MB-435
HCC 2998 = tested on: HCC 2998
UACC-62 = tested on: UACC-62
NCI/ADR-RES = tested on: NCI/ADR-RES
RXF 393 = tested on: RXF 393
T47D = tested on: T47D
HOP-92 = tested on: HOP-92
SK-OV-3 = tested on: SK-OV-3
ACHN = tested on: ACHN
SK-MEL-28 = tested on: SK-MEL-28
M14 = tested on: M14
Malme-3M = tested on: Malme-3M
SK-MEL-5 = tested on: SK-MEL-5
DU-145 = tested on: DU-145
MCF7 = tested on: MCF7
UACC-257 = tested on: UACC-257
SF-268 = tested on: SF-268
SNB-75 = tested on: SNB-75
K562 = tested on: K562
SR = tested on: SR
KM12 = tested on: KM12
PC-3 = tested on: PC-3
MDA-N = tested on: MDA-N
SK-MEL-2 = tested on: SK-MEL-2
CAKI-1 = tested on: CAKI-1
OVCAR-3 = tested on: OVCAR-3
NCI-H522 = tested on: NCI-H522

Measured: GI50

C#CCN(CC#C)C(=O)C(=O)c1c[nH]c2ccc(OC)cc12
15.5 µM: HCT-15
inactive: UO-31 8.11 µM | SF-295 17.5 µM | SW-620 20.3 µM | 786-0 16.6 µM | SNB-19 16.1 µM | NCI-H226 18.2 µM | Hs-578T 16.1 µM | NCI-H23 22.4 µM | HOP-62 16.7 µM | U-251 14.4 µM | TK-10 14.5 µM | COLO 205 21.6 µM | A498 15.1 µM | EKVX 32.4 µM | LOX IMVI 18.7 µM | A549 25.7 µM | CCRF-CEM 19.7 µM | OVCAR-8 22 µM | RPMI-8226 10.6 µM | OVCAR-5 17.4 µM | NCI-H460 15 µM | OVCAR-4 > 10 µM | MDA-MB-231 14.9 µM | HT-29 12.5 µM | IGROV-1 33 µM | HL-60 3.99 µM | MOLT-4 > 10 µM | SN12C 15.3 µM | HCT-116 17.5 µM | SF-539 14 µM | MDA-MB-435 18.5 µM | HCC 2998 16.9 µM | UACC-62 19.5 µM | NCI/ADR-RES 21.8 µM | RXF 393 16.3 µM | T47D 24.2 µM | HOP-92 14.2 µM | SK-OV-3 17.8 µM | ACHN 21.3 µM | SK-MEL-28 16.1 µM | M14 18.5 µM | Malme-3M 17.2 µM | SK-MEL-5 15.8 µM | DU-145 39.1 µM | MCF7 18.6 µM | UACC-257 17.5 µM | SF-268 29.5 µM | SNB-75 20.2 µM | K562 18.6 µM | SR 11.1 µM | KM12 14 µM

COc1cc(/C=C2\CCC(C)c3c2nc(N)c(C#N)c3-c2cc(OC)c(OC)c(OC)c2)cc(OC)c1OC (stereo not drawn)
inactive: SW-620 81.8 µM | 786-0 37.4 µM | SNB-19 54 µM | Hs-578T 18.7 µM | HOP-62 > 100 µM | U-251 46 µM | TK-10 75.3 µM | PC-3 55.1 µM | A498 > 100 µM | EKVX 34.5 µM | LOX IMVI 41.5 µM | A549 > 100 µM | CCRF-CEM 23.7 µM | OVCAR-8 13.2 µM | RPMI-8226 56.2 µM | OVCAR-5 > 100 µM | OVCAR-4 31.5 µM | MDA-N > 100 µM | MDA-MB-231 37.2 µM | HT-29 33.3 µM | HL-60 49.1 µM | MOLT-4 25.2 µM | SN12C 44.4 µM | HCT-116 > 100 µM | MDA-MB-435 > 100 µM | UACC-62 > 100 µM | RXF 393 73.3 µM | HOP-92 67.5 µM | SK-OV-3 > 100 µM | ACHN > 100 µM | SK-MEL-28 > 100 µM | M14 45.7 µM | SK-MEL-5 71.9 µM | DU-145 55.2 µM | MCF7 29.9 µM | UACC-257 > 100 µM | SK-MEL-2 > 100 µM | SF-268 25.7 µM | K562 28.6 µM | SR 25.8 µM | KM12 51.6 µM | CAKI-1 > 100 µM
27.1 µM: HCT-15
active: IGROV-1 0.984 µM | SNB-75 0.165 µM

CCOC(CNc1nn2c(C)nnc2s1)OCC
inactive: SF-295 > 100 µM | SW-620 > 100 µM | 786-0 > 100 µM | SNB-19 > 100 µM | NCI-H226 > 100 µM | Hs-578T > 100 µM | NCI-H23 > 100 µM | HOP-62 > 100 µM | U-251 > 100 µM | TK-10 > 100 µM | PC-3 > 100 µM | COLO 205 > 100 µM | A498 > 100 µM | EKVX > 100 µM | OVCAR-3 > 100 µM | LOX IMVI > 100 µM | A549 > 100 µM | CCRF-CEM > 100 µM | OVCAR-8 > 100 µM | RPMI-8226 > 100 µM | OVCAR-5 > 100 µM | NCI-H460 > 100 µM | OVCAR-4 > 100 µM | MDA-N > 100 µM | MDA-MB-231 > 100 µM | HT-29 > 100 µM | IGROV-1 > 100 µM | HL-60 > 100 µM | MOLT-4 > 100 µM | SN12C > 100 µM | HCT-116 > 100 µM | SF-539 > 100 µM | MDA-MB-435 > 100 µM | HCC 2998 > 100 µM | UACC-62 > 100 µM | NCI/ADR-RES > 100 µM | RXF 393 > 100 µM | HOP-92 > 100 µM | SK-OV-3 > 100 µM | ACHN > 100 µM | SK-MEL-28 > 100 µM | M14 > 100 µM | Malme-3M > 100 µM | SK-MEL-5 > 100 µM | DU-145 > 100 µM | MCF7 > 100 µM | NCI-H522 > 100 µM | UACC-257 > 100 µM | SK-MEL-2 > 100 µM | SF-268 > 100 µM | SNB-75 > 100 µM | K562 > 100 µM | SR > 100 µM | KM12 > 100 µM | CAKI-1 > 100 µM
> 100 µM: HCT-15
